The assay addresses full-length human recombinant BTK (Homo sapiens (Human), UniProt Q06187). Kind of assay: Inhibition of Btk enzymatic activity (biochemical enzyme assay, Caliper). The following applies: 30° C., 60 minutes. As to the method: The inhibitory activity of the present compounds against Btk was assessed in a biochemical enzyme assay. Assay plates in 384 well format were prepared with 8-point serial dilutions for the test compounds on a Thermo CatX workstation equipped with a Innovadyne Nanodrop Express. The assay plates were prepared by addition of 50 nl per well of compound solution in 90% DMSO. The kinase reactions were started by stepwise addition of 4.5 μl per well of peptide/ATP-solution (4 μM FITC-Ahx-[…]-NH2, 164 μM ATP) in kinase buffer (50 mM HEPES, pH 7.5, 1 mM DTT, 0.02% Tween20, 0.02% BSA, 0.6% DMSO, 10 mM beta-glycerophosphate, and 10 μM sodium orthovanadate, 18 mM MgCl2, 1 mM MnCl2) and 4.5 μl per well of enzyme solution (6.4 nM full-length human recombinant BTK) in kinase buffer. Kinase reactions were incubated at 30° C. for 60 minutes and subsequently terminated by addition of 16 μl per well of stop solution (100 mM HEPES pH 7.5, 5% DMSO, 0.1% Caliper coating reagent, 10 mM EDTA, and 0.015% Brij35). Kinase reactions were analyzed on a Caliper LC3000 workstation by separating phosphorylated and unphosphorylated peptides and kinase activities were calculated from the amounts of newly formed phospho-peptide. Inhibition data were calculated by comparison to control reactions without enzyme (100% inhibition) and without inhibitors (0% inhibition). The concentration of inhibitor required for 50% inhibition (IC50) was calculated from the inhibition in response to inhibitor concentrations.

Structures are written as SMILES.

Sequence of full-length human recombinant BTK (Q06187 whole entry): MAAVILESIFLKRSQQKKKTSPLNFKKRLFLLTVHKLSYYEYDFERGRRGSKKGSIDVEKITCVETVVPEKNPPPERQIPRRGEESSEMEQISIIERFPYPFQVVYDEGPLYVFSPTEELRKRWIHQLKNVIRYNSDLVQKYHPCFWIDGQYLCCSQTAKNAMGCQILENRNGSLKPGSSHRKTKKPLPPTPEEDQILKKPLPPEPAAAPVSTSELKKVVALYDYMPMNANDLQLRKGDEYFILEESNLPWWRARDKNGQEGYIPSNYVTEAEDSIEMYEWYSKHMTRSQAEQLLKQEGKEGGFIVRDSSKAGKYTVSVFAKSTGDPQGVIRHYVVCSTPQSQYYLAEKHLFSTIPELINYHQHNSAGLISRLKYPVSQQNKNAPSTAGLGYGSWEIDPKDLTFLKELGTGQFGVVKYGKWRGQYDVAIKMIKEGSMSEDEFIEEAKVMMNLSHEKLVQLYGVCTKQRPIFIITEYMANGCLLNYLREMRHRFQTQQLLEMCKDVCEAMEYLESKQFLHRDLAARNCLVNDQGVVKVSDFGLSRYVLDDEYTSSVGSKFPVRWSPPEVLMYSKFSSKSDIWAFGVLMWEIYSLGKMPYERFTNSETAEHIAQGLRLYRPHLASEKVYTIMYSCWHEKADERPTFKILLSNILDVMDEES

As usually defined, the IC50 is the concentration that inhibits the measured activity by half. On to `Cc1c(NC(=O)c2ccc(C(C)(C)C)cc2)cc(F)cc1-c1ncnc2[nH]c(C3=CCC(O)CC3)cc12` (centres unmarked) [Example 28, 4-tert-Butyl-N-{5-fluoro-3-[6-(4-hydroxy-cyclohex-1-enyl)-7H-pyrrolo[2,3-d]pyrimidin-4-yl]-2-methyl-phenyl}-benzamide], for which the IC50 was found to be 46 nM.
Regarding `Cc1c(NC(=O)c2ccc(C3CC3)cc2)cc(F)cc1-c1ncnc2[nH]c(C3=CCN(C(=O)N4CCCC4)CC3)cc12` [Example 30, 4-Cyclopropyl-N-(5-fluoro-2-methyl-3-{6-[1-(pyrrolidine-1-carbonyl)-1,2,3,6-tetrahydro-pyridin-4-yl]-7H-pyrrolo[2,3-d]pyrimidin-4-yl}-phenyl)-benzamide], the IC50 amounted to 6 nM.
`Cc1c(NC(=O)c2ccc(C3(C(F)(F)F)CC3)cc2)cc(F)cc1-c1ncnc2[nH]c(C3=CCN(C(=O)N(C)C)CC3)cc12` [Example 9, 4-(4-{5-Fluoro-2-methyl-3-[4-(1-trifluoromethyl-cyclopropyl)-benzoylamino]-phenyl}-7H-pyrrolo[2,3-d]pyrimidin-6-yl)-3,6-dihydro-2H-pyridine-1-carboxylic acid dimethylamide]: the IC50 was determined as 5 nM.
As to `Cc1c(NC(=O)c2ccc(C(C)(C)C)cc2)cccc1-c1ncnc2[nH]c(C3=CCC(N(C)C)CC3)cc12` (centres unmarked) [Example 67, 4-tert-Butyl-N-{3-[6 (4 dimethylamino-cyclohex-1-enyl)-7H-pyrrolo[2,3-d]pyrimidin-4-yl]-2-methyl-phenyl}-benzamide], the 50% inhibitory concentration (IC50) was determined as 8 nM.
With `Cc1c(NC(=O)c2ccc(C(C)(C)C)cc2)cccc1-c1ncnc2[nH]c(C3=CCSCC3)cc12` [Example 51, 4-tert-Butyl-N-{3-[6-(3,6-dihydro-2H-thiopyran-4-yl)-7H-pyrrolo[2,3-d]pyrimidin-4-yl]-2-methyl-phenyl}-benzamide], the IC50 was 47 nM.
For `CC(C)(C)c1ccc(C(=O)Nc2cccc(-c3ncnc4[nH]c(C5=CCC(O)CC5)cc34)c2CO)cc1` (centres unmarked) [Example 55, 4-tert-Butyl-N-{3-[6 (4 hydroxy-cyclohex-1-enyl)-7H-pyrrolo[2,3-d]pyrimidin-4-yl]-2-hydroxymethyl-phenyl}-benzamide], the IC50 worked out at 4 nM.
Consider `CN(C)C(=O)N1CC=C(c2cc3c(-c4ccc(F)c(NC(=O)c5ccc(C6CC6)cc5)c4)ncnc3[nH]2)CC1` [Example 20, 4-{4-[3-(4-Cyclopropyl-benzoylamino)-4-fluoro-phenyl]-7H-pyrrolo[2,3-d]pyrimidin-6-yl}-3,6-dihydro-2H-pyridine-1-carboxylic acid dimethylamide], for which the half-inhibitory concentration (IC50) was determined as 6 nM.
For the molecule `Cc1c(NC(=O)c2ccc(C(C)(C)C)cc2)cc(F)cc1-c1ncnc2[nH]c(C3=CCNCC3)cc12` [Example 40, 4-tert-Butyl-N-{5-fluoro-2-methyl-3-[6-(1,2,3,6-tetrahydro-pyridin-4-yl)-7H-pyrrolo[2,3-d]pyrimidin-4-yl]-phenyl}-benzamide], the IC50 was found to be 19 nM.
As to `CN(C)C(=O)N1CC=C(c2cc3c(-c4cccc(NC(=O)c5ccc(C(C)(C)C)cc5)c4CO)ncnc3[nH]2)CC1` [Example 37, 4-{4-[3-(4-tert-Butyl-benzoylamino)-2-hydroxymethyl-phenyl]-7H-pyrrolo[2,3-d]pyrimidin-6-yl}-3,6-dihydro-2H-pyridine-1-carboxylic acid dimethylamide], the IC50 was found to be 26 nM.
Regarding `Cc1c(NC(=O)c2ccc(C(C)(O)C(F)(F)F)cc2)cc(F)cc1-c1ncnc2[nH]c(C3=CCN(C(=O)N(C)C)CC3)cc12` (centres unmarked) [Example 18, 4-(4-{5-Fluoro-2-methyl-3-[4-(2,2,2-trifluoro-1-hydroxy-1-methyl-ethyl)-benzoylamino]-phenyl}-7H-pyrrolo[2,3-d]pyrimidin-6-yl)-3,6-dihydro-2H-pyridine-1-carboxylic acid dimethylamide], the half-maximal inhibitory concentration (IC50) came to 6 nM.
For the molecule `COCC(C)(C)c1ccc(C(=O)Nc2cc(F)cc(-c3ncnc4[nH]c(C5=CCN(C(=O)N(C)C)CC5)cc34)c2C)cc1` [Example 12, 4-(4-{5-Fluoro-3-[4-(2-methoxy-1,1-dimethyl-ethyl)-benzoylamino]-2-methyl-phenyl}-7H-pyrrolo[2,3-d]pyrimidin-6-yl)-3,6-dihydro-2H-pyridine-1-carboxylic acid dimethylamide], the IC50 is 4 nM.
On to `Cc1c(-c2ncnc3[nH]c(C4=CCN(C(=O)N(C)C)CC4)cc23)ccc(F)c1NC(=O)N1CC(OC(C)(C)C)C1` [Example 63, 4-(4-{3-[(3-tert-Butoxy-azetidine-1-carbonyl)-amino]-4-fluoro-2-methyl-phenyl}-7H-pyrrolo[2,3-d]pyrimidin-6-yl)-3,6-dihydro-2H-pyridine-1-carboxylic acid dimethylamide], for which the IC50 came to 2 nM.
For `Cc1c(NC(=O)c2ccc(N(C)C)cc2)cc(F)cc1-c1ncnc2[nH]c(C3=CCOCC3)cc12` [Example 50, N-{3-[6-(3,6-Dihydro-2H-pyran-4-yl)-7H-pyrrolo[2,3-d]pyrimidin-4-yl]-5-fluoro-2-methyl-phenyl}-4-dimethylamino-benzamide], the IC50 was 47 nM.
Turning to `Cc1c(NC(=O)c2ccc(C(C)(C)C)cc2)cccc1-c1ncnc2[nH]c(C3=CCC4(CC3)OCCO4)cc12` [Example 65, 4-tert-Butyl-N-{3-[6-(1,4-dioxa-spiro[4.5]dec-7-en-8-yl)-7H-pyrrolo[2,3-d]pyrimidin-4-yl]-2-methyl-phenyl}-benzamide], the IC50 amounted to 9 nM.
Regarding `CN(C)C(=O)N1CC=C(c2cc3c(-c4cccc(N5CCc6cc(C(C)(C)O)ccc6C5=O)c4CO)ncnc3[nH]2)CC1` [Example 47, 4-(4-{2-Hydroxymethyl-3-[6-(1-hydroxy-1-methyl-ethyl)-1-oxo-3,4-dihydro-1H-isoquinolin-2-yl]-phenyl}-7H-pyrrolo[2,3-d]pyrimidin-6-yl)-3,6-dihydro-2H-pyridine-1-carboxylic acid dimethylamide], the IC50 turned out to be 2 nM.
Regarding `CC(=O)OCC(=O)N1CC=C(c2cc3c(-c4cc(F)cc(NC(=O)c5ccc(S(F)(F)(F)(F)F)cc5)c4C)ncnc3[nH]2)CC1` [Example 35, Acetic acid 2-[4-(4-{5-fluoro-2-methyl-3-[4-(pentafluoro-sulfanyl)-benzoylamino]-phenyl}-7H-pyrrolo[2,3-d]pyrimidin-6-yl)-3,6-dihydro-2H-pyridin-1-yl]-2-oxo-ethyl ester], the IC50 came out at 14 nM.
`Cc1c(NC(=O)c2ccc(N3CCCCC3)cc2)cc(F)cc1-c1ncnc2[nH]c(C3=CCN(C(=O)N(C)C)CC3)cc12` [Example 7, 4-{4-[5-Fluoro-2-methyl-3-(4-piperidin-1-yl-benzoylamino)-phenyl]-7H-pyrrolo[2,3-d]pyrimidin-6-yl}-3,6-dihydro-2H-pyridine-1-carboxylic acid dimethylamide]: the IC50 worked out at 3 nM.
Turning to `Cc1c(NC(=O)c2ccc(N(C)C(C)C)cc2)cc(F)cc1-c1ncnc2[nH]c(C3=CCN(C(=O)N(C)C)CC3)cc12` [Example 4], the IC50 was 2 nM.
The result for `Cc1c(NC(=O)c2ccc3c(C)c[nH]c3c2)cc(F)cc1-c1ncnc2[nH]c(C3=CCN(C(=O)N(C)C)CC3)cc12` [Example 5, 3-Methyl-1H-indole-6-carboxylic acid {3-[6-(1-dimethylcarbamoyl-1,2,3,6-tetrahydro-pyridin-4-yl)-7H-pyrrolo[2,3-d]pyrimidin-4-yl]-5-fluoro-2-methyl-phenyl}-amide] reads 3 nM; that for `Cc1c(NC(=O)c2ccc(C(C)(C)C)cc2)cc(F)cc1-c1ncnc2[nH]c(C3=CCN(C(=O)N(C)C)CC3)cc12` [Example 41, 4-{4-[3-(4-tert-Butyl-benzoylamino)-5-fluoro-2-methyl-phenyl]-7H-pyrrolo[2,3-d]pyrimidin-6-yl}-3,6-dihydro-2H-pyridine-1-carboxylic acid dimethylamide], 23 nM; that for `Cc1c(NC(=O)c2ccc3ccn(C)c3n2)cc(F)cc1-c1ncnc2[nH]c(C3=CCN(C(=O)N(C)C)CC3)cc12` [Example 14, 1-Methyl-1H-pyrrolo[2,3-b]pyridine-6-carboxylic acid {3-[6-(1-dimethyl-carbamoyl-1,2,3,6-tetrahydro-pyridin-4-yl)-7H-pyrrolo[2,3-d]pyrimidin-4-yl]-5-fluoro-2-methyl-phenyl}-amide], 16 nM.
For the molecule `CC(C)(O)c1ccc(C(=O)Nc2cccc(-c3ncnc4[nH]c(C5=CCOCC5)cc34)c2CO)c(F)c1` [Example 23, N-{3-[6-(3,6-Dihydro-2H-pyran-4-yl)-7H-pyrrolo[2,3-d]pyrimidin-4-yl]-2-hydroxymethyl-phenyl}-2-fluoro-4-(1-hydroxy-1-methyl-ethyl)-benzamide], the IC50 is 12 nM.
Regarding `Cc1c(NC(=O)c2ccc(S(F)(F)(F)(F)F)cc2)cc(F)cc1-c1ncnc2[nH]c(C3=CCN(C(=O)CO)CC3)cc12` [Example 36, N-(5-Fluoro-3-{6-[1-(2-hydroxy-acetyl)-1,2,3,6-tetrahydro-pyridin-4-yl]-7H-pyrrolo[2,3-d]pyrimidin-4-yl}-2-methyl-phenyl)-4-(pentafluoro-sulfanyl)-benzamide], the IC50 is 4 nM.

The values above are taken from patent publication US9233111B2, “Pyrrolo pyrimidine derivatives” (NOVARTIS AG, priority 2011, dated 2016).
